Legend:
[1] = target: T1, PAT1 (murine slc26a6) (Mus musculus, UniProt Q8CIW6); experiment: PAT1-mediated Cl-/I- exchange, YFP fluorescence quenching in FRT cells; type: cell-based; conditions: for effect on PAT1-mediated Cl-/I- exchange: 100 μM agonist
T1 construct: host or cells: Fischer rat thyroid (FRT) cells, lentiviral transduction (pLVX-IRES-mCherry-slc26a6), clonal line FRT-YFP-slc26a6
T1 sequence (Q8CIW6 24-758 limits assumed): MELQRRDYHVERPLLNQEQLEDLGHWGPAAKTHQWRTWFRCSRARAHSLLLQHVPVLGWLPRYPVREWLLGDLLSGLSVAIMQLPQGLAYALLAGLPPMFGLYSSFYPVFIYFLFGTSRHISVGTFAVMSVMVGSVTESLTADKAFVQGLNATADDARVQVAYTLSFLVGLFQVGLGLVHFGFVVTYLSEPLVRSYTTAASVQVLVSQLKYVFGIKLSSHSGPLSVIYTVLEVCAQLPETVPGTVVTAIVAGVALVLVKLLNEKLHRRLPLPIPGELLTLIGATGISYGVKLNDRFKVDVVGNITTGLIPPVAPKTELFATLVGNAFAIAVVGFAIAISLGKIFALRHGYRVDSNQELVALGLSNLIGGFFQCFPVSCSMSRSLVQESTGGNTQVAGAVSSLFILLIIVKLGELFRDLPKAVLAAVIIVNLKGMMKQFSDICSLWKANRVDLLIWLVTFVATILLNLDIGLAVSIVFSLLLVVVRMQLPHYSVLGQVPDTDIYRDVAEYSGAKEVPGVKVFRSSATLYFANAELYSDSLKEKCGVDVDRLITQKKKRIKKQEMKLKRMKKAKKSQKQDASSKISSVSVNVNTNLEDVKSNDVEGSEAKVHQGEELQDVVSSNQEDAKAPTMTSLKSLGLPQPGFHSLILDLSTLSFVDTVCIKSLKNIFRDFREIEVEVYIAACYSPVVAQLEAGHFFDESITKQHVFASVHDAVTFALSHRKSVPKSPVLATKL
Procedure: A small-molecule screen was developed to identify PAT1 inhibitors utilizing transfected FRT cells expressing PAT1 (murine slc26a6) together with a halide-sensing cytoplasmic YFP (Figure 1A). Adherent cells in a 96-well format were subjected to an inward gradient of I^– to drive exchange of I^– for Cl^– and consequent quenching of the YFP fluorescence signal.
A collection of approximately 50,000 diverse, drug-like synthetic small molecules (ChemDiv) was screened at a concentration of 25 μM using a Beckman Coulter BioMek FX liquid handling platform with FLUOstar OMEGA plate readers (BMG Labtech). FRT-YFP-slc26a6 cells were plated in 96-well black-walled, clear-bottom plates (Corning Life Sciences) at a density of 20,000 cells/well and cultured for 48 hours until confluent. Cells were washed twice in PBS and incubated for 10 minutes prior to assay in 100 μl PBS containing test compounds. For assay of slc26a6 function, baseline cellular fluorescence was measured for 2 seconds, after which 100 μl NaI-substituted PBS (140 mM NaCl replaced by 140 mM NaI) was added by syringe pump to drive Cl^–/I^– exchange. The initial rate of Cl^–/I^– exchange was determined by single exponential regression of the fluorescence time course. All assay plates contained wells with negative (1% DMSO) and positive (500 μM niflumic acid) controls. For structure-activity relationship studies, analogs of active compounds were purchased from ChemDiv.

[2] = tested on: mouse midjejunal closed loops; parameters: method as in PMID 30046015; conditions: 10 μM; cited from earlier work
[3] = tested on: loperamide-induced constipation in mice; experiment: Loperamide model of constipation; type: in vivo, mouse; conditions: 10 mg/kg, oral, stool collected over 3 hours
Procedure: Wild-type CD1 mice were administered loperamide (0.3 mg/kg, intraperitoneally) in PBS containing 5% ethanol (0.1 mg/mL final concentration) to induce constipation ([9], [30]). PAT1inh-B01 and DRAinh-A270, individually or together (10 mg/kg each, in saline containing 5% DMSO and 10% Kolliphor HS 15), or vehicle control were administered by oral gavage 1 hour before loperamide. After loperamide injection mice were placed individually in metabolic cages with free access to food and water. Stool samples were collected for 3 hours, and total stool weight and number of fecal pellets were quantified. To measure stool water content, stool samples were dried at 80°C for 24 hours and water content was calculated as follows: (wet weight – dry weight)/wet weight ([9], [30]).

[4] = tested on: DRA; experiment: DRA inhibition potency comparison; conditions: vs DRAinh-A250
[5] = tested on: mouse midjejunal closed loops; experiment: Closed midjejunal loop fluid absorption; type: in vivo; conditions: 10 μM luminal, 30 minutes
Procedure: For fluid absorption studies in small intestine, mice were given free access to 5% dextrose in water but not solid food for 24 hours before experiments. Closed midjejunal and ileal loops were prepared and isolated as described previously ([29]). Mice were anesthetized with isoflurane, and body temperature was maintained during surgery at 36°C–38°C using a heating pad. A small abdominal incision was made to expose small intestine for isolation of 3–4 closed small intestinal loops (jejunum or ileum, length 2–3 cm) with sutures. Loops were injected with 100 μL PBS (pH 7.4, 137 mM NaCl, 2.7 mM KCl, 8 mM Na2HPO4, 1.8 mM KH2PO4, 1 mM CaCl2, 0.5 mM MgCl2) containing 30 μM PAT1inh-B01, 10 μM DRAinh-A270, or 10 μM tenapanor (MedChemExpress) (or vehicle, 0.1% DMSO in PBS). In some experiments, 30 μM PAT1inh-B01 and 10 μM DRAinh-A270 were used together. In some experiments to rule out effects of sodium-dependent phosphate transport, the loop lumen contained HEPES-buffered saline (pH 7.4, 137 mM NaCl, 4.5 mM KCl, 10 mM HEPES, 1 mM CaCl2, 0.5 mM MgCl2). […] Intestinal loops were removed at 0 and 30 minutes (in separate mice), and loop length and weight were measured to quantify fluid absorption. […] In some experiments, loop fluid was emptied with a syringe, and pH was measured immediately using AB15 pH meter after brief centrifugation at 2000 g for 5 minutes at 4°C.

[6] = tested on: mouse ileal closed loops; experiment: Closed ileal loop fluid absorption; type: in vivo; conditions: 10 μM luminal, 30 minutes, PBS
Procedure: (§1) For fluid absorption studies in small intestine, mice were given free access to 5% dextrose in water but not solid food for 24 hours before experiments. Closed midjejunal and ileal loops were prepared and isolated as described previously ([29]). Mice were anesthetized with isoflurane, and body temperature was maintained during surgery at 36°C–38°C using a heating pad. A small abdominal incision was made to expose small intestine for isolation of 3–4 closed small intestinal loops (jejunum or ileum, length 2–3 cm) with sutures. Loops were injected with 100 μL PBS (pH 7.4, 137 mM NaCl, 2.7 mM KCl, 8 mM Na2HPO4, 1.8 mM KH2PO4, 1 mM CaCl2, 0.5 mM MgCl2) containing 30 μM PAT1inh-B01, 10 μM DRAinh-A270, or 10 μM tenapanor (MedChemExpress) (or vehicle, 0.1% DMSO in PBS). In some experiments, 30 μM PAT1inh-B01 and 10 μM DRAinh-A270 were used together. In some experiments to rule out effects of sodium-dependent phosphate transport, the loop lumen contained HEPES-buffered saline (pH 7.4, 137 mM NaCl, 4.5 mM KCl, 10 mM HEPES, 1 mM CaCl2, 0.5 mM MgCl2). The abdominal incision was closed with sutures, and mice were allowed to recover from anesthesia. Intestinal loops were removed at 0 and 30 minutes (in separate mice), and loop length and weight were measured to quantify fluid absorption. In parallel experiments, CF mice were used and loop studies were done as described above. In some experiments, loop fluid was emptied with a syringe, and pH was measured immediately using AB15 pH meter after brief centrifugation at 2000 g for 5 minutes at 4°C.

[7] = tested on: ileal closed loops in cystic fibrosis (CF) mice (homozygous F508del); experiment: Closed ileal loop fluid absorption in CF mice; type: in vivo, mouse; conditions: 10 μM luminal
Procedure: as §1

[8] = tested on: mouse distal colonic closed loops; experiment: Closed distal colonic loop fluid absorption; type: in vivo; conditions: 10 μM luminal
Procedure: For fluid absorption studies in colon, mice were given free access to 5% dextrose in water but not solid food for 48 hours. Mice were treated with 500 μL mineral oil twice a day rectally (final dose 16 h before surgery) during this period to evacuate the colon. Closed distal colonic loops (length 1.5–2 cm, 1 loop per mouse) were isolated as described previously ([7]). Loops were injected with 100 μL PBS with 30 μM PAT1inh-B01, 10 μM DRAinh-A270, or 10 μM tenapanor (or vehicle). In some experiments, 30 μM PAT1inh-B01 and 10 μM DRAinh-A270 were used together. Colonic loops were removed at 0 and 60 minutes (in separate mice), and loop length and weight were measured to quantify fluid absorption.

SMILES	effect on PAT1-mediated Cl-/I- exchange [1]	inhibition of fluid absorption (decrease in loop weight-to-length ratio) [5]	effect on ileal fluid absorption (loop weight-to-length ratio) [6]	effect on fluid absorption from ilea of CF mice [7]	effect on colonic fluid absorption (loop weight-to-length ratio) [8]	other results
Nc1nc2c(nc(Br)n2[C@@H]2O[C@@H]3COP(=O)(O)O[C@H]3[C@H]2O)c(=O)[nH]1 [8-Br-cGMP, reference compound]	did not significantly affect	–	–	–	–	–
Nc1ncnc2c1ncn2[C@@H]1O[C@H](COP(=O)(O)OP(=O)(O)OP(=O)(O)O)[C@@H](O)[C@H]1O [ATP, reference compound]	did not significantly affect	–	–	–	–	–
Cc1c(CC(=O)O)c(=O)oc2c(C)c(OCc3cccc(Br)c3)ccc12 [DRAinh-A250]	–	–	–	–	–	effect on fluid absorption in closed midjejunal loops [2]: did not significantly affect
Cc1c(CC(=O)O)c(=O)oc2c(C)c(OCc3cccc(I)c3)ccc12 [DRAinh-A270]	–	approximately 50%	did not inhibit	no effect	completely prevented	effect on number of pellets [3]: increased; effect on stool water content [3]: normalized; effect on stool weight [3]: increased; potency as DRA inhibitor relative to DRAinh-A250 [4]: 5 fold
O=C(O)c1cccnc1Nc1cccc(C(F)(F)F)c1 [niflumic acid, reference compound]	–	–	–	–	–	IC50 ([1]; FRT cells expressing PAT1 and YFP, read-out: IC50, inhibition of PAT1-mediated Cl-/I- exchange): 200 µM
CN1Cc2c(Cl)cc(Cl)cc2[C@H](c2cccc(S(=O)(=O)NCCOCCOCCNC(=O)NCCCCNC(=O)NCCOCCOCCNS(=O)(=O)c3cccc([C@@H]4CN(C)Cc5c(Cl)cc(Cl)cc54)c3)c2)C1 [tenapanor]	–	comparable	comparable	completely blocked	did not inhibit	–
